Activity calls are given as the source filed them. Cut-off read from the data, not from the text of the source, for most assays here: actives have a measured EC50 and inactives only a lower limit.
Experiments:
[1] = biological target: Beta-2 adrenergic receptor (Homo sapiens, UniProt P07550); assay: beta2AR agonists driving receptor internalization, dose response, cell-based, FAP fluorogen, flow cytometry, cherry pick 1 (AID 588763); format: functional
[2] = inhibitors of firefly luciferase expression or activity, dose response, H4 neuroglioma cells, luminescence (AID 1990); format: functional, cell-based
[3] = luciferase reporter signal reduction – luminescence, H4-C neuroglioblastoma cells, dose response (AID 2458); format: functional, cell-based;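 note: H4 neuroglioblastoma cells stably carrying a luciferase reporter gene fusion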
cells = format: functional, cell-based
[4] = Luminescence Cell-Based Dose Response HTS to Identify Inhibitors of 5'UTR Stem-Loop Driven Prion Protein mRNA Translation in H4 Neuroglioblastoma Cells. [Related pubchem assays: 1827 (Project Summary), 1813 (Primary HTS)]; format: functional
[5] = inhibitors of SNCA 5'UTR-driven reporter translation, confirmation, H4 neuroglioma cells, luminescence (AID 1988); format: functional, cell-based
BJ [6] = assay: cells; format: functional, cell-based; details: Homo sapiens
BJ [7] = assay: cytotoxicity toward BJ-TERT-LT-ST fibroblasts, dose response, cell-based, RAS-independent, luminescence (AID 1935); format: functional; details: Homo sapiens;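 note: BJ fibroblasts immortalized with TERT plus LT and ST oncogenes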
[8] = cytotoxicity toward DRD oncogenic fibroblasts, dose response, cell-based, non-viral oncogenic, luminescence (AID 1934); format: functional; details: Homo sapiens
[9] = inhibitors of SNCA 5'UTR-driven translation, confirmation, luminescence, H4 neuroglioblastoma cells, dose confirmation (AID 2454); format: functional, cell-based;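 note: H4 neuroglioblastoma cells carrying an alpha-synuclein 5'UTR luciferase reporter; potency for inhibition of the luciferase signal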
Phospholipase A2 = Phospholipase A2 (Homo sapiens, UniProt P04054); assay: PLA2 enzyme inhibitors, dose response, counter-screen for ATG4B inhibitor project, biochemical, set 2 (AID 588586); format: functional
BJ [10] = assay: cytotoxicity toward Ras-transformed BJeLR fibroblasts, dose response, cell-based, alamar blue fluorescence, cherrypicked samples (AID 2631); format: functional; details: Homo sapiens;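 note: confirmatory dose-response assay in RAS-dependent BJ fibroblasts engineered with TERT, LT and ST, with cytotoxicity read by fluorescence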
Cysteine protease ATG4B = biological target: T1, Cysteine protease ATG4B (Homo sapiens, UniProt Q9Y4P1); assay: ATG4B protease inhibitors, dose response, biochemical, fluorescence, set 2 (AID 588584); format: functional
T1 sequence (Q9Y4P1 whole entry): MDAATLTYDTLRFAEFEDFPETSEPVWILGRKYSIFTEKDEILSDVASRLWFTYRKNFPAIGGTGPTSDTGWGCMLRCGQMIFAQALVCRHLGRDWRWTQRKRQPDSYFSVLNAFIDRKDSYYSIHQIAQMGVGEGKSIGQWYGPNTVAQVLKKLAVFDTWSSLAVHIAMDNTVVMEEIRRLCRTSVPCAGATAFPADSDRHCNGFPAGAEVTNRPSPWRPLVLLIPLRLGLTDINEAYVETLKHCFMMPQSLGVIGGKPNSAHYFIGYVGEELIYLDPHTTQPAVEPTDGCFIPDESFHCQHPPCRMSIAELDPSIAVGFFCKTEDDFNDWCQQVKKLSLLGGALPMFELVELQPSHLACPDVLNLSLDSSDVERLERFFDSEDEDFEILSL

[11] = biological target: FAD-linked sulfhydryl oxidase ALR (Homo sapiens, UniProt P55789); assay: inhibitors of human ALR sulfhydryl oxidase, dose response, biochemical, H2O2 detection, luminescence, cherry-pick (AID 493248)
Hexokinase-1 = biological target: T2, Hexokinase-1 (Homo sapiens, UniProt P19367); assay: SAR analysis of small molecule inhibitors of hexokinase domain containing I (HKDC1) in the hexokinase 1 selectivity assay. [Related pubchem assays (depositor defined):AID493160, AID493190]; format: functional
T2 sequence (P19367 whole entry): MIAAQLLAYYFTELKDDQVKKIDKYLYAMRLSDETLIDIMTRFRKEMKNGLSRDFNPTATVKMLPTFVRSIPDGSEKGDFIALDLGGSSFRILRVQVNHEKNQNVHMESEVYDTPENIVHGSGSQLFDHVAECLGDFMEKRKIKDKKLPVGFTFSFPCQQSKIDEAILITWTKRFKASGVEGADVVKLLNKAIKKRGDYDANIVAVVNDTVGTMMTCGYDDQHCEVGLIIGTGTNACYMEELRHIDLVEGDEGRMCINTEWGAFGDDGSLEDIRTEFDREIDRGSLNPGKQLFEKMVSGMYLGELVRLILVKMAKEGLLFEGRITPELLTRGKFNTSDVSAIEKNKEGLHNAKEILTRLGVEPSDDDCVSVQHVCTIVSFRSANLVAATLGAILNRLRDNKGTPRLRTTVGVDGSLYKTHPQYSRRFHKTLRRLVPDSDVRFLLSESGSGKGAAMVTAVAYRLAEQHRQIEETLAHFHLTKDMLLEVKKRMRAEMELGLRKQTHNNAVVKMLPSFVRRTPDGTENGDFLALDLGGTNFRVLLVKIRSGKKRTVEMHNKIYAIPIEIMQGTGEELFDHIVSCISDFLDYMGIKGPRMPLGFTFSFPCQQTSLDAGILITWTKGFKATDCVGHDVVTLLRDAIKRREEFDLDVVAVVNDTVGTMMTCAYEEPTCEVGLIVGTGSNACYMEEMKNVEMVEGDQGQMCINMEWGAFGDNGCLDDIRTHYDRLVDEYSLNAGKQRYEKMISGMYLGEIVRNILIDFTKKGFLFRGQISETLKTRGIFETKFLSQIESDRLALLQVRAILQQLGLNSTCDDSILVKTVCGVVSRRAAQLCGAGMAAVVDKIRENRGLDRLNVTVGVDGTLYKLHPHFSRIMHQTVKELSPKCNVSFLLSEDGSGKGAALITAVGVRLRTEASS

Hexokinase HKDC1 = biological target: T3, Hexokinase HKDC1 (Homo sapiens, UniProt Q2TB90); assay: SAR analysis of small molecule inhibitors of hexokinase domain containing I (HKDC1). [Related pubchem assays (depositor defined):AID493160, AID493190]; format: functional
T3 sequence (Q2TB90 whole entry): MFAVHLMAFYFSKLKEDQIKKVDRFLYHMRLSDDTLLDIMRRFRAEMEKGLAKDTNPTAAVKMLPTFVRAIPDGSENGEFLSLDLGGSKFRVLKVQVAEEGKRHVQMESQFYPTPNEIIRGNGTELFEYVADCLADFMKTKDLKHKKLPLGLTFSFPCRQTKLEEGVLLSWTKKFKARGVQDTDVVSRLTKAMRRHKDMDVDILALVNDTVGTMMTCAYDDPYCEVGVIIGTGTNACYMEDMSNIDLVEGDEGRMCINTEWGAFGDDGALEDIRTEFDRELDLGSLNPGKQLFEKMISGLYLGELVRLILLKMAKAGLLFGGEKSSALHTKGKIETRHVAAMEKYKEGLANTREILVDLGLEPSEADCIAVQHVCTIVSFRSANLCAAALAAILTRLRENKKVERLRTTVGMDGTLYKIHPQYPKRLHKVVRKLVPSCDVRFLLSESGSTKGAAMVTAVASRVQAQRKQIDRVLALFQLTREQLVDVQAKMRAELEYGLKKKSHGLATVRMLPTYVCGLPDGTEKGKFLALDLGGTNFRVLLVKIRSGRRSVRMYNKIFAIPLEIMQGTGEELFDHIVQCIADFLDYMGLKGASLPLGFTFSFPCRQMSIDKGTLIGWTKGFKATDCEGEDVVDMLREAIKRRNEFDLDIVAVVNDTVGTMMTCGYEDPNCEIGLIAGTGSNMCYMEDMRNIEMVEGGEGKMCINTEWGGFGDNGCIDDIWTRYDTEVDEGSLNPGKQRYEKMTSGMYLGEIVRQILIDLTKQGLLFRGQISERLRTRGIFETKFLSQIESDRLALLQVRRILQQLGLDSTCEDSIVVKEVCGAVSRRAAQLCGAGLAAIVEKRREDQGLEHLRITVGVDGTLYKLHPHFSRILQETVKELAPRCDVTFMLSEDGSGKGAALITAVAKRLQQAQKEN

[12] = biological target: T4, High affinity choline transporter 1 (Homo sapiens, UniProt Q9GZV3); assay: CHT inhibitors, dose response, cell-based, 5-point CRC, membrane potential dye (AID 504840); format: functional
T4 sequence (Q9GZV3 whole entry): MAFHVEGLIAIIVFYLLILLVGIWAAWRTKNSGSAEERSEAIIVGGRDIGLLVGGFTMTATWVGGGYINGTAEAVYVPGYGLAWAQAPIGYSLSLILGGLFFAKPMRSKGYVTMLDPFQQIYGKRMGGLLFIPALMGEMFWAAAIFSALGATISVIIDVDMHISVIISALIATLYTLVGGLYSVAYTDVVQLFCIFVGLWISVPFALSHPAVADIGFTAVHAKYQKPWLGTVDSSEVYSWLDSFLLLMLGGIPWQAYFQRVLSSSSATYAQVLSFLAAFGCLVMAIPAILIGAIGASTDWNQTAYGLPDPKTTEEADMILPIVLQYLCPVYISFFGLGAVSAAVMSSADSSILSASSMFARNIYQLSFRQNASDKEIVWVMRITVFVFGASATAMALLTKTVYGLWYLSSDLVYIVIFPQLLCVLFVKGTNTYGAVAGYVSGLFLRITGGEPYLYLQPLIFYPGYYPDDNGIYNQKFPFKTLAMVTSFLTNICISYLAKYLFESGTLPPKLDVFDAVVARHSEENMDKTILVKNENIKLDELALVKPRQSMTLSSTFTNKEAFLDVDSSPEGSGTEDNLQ

MDCK = assay: antiviral activity against H1N1 influenza, dose response, cell-based, strain KY136 (AID 540257); format: functional; details: Canis lupus familiaris
[13] = biological target: Luciferin 4-monooxygenase (Photinus pyralis, UniProt P08659); assay: Counter Screen for Luciferase-based Assay Positives. [Related pubchem assays: 620, 618, 411 ]
HT-1080 = assay: cytotoxicity in HT1080 fibrosarcoma cells, cell-based, fluorescence readout (AID 620); format: functional; details: Homo sapiens
HEK293 = assay: inhibitors of LMP1-driven NF-kB reporter, dose response, cell-based, HEK293, luciferase, cherry-pick (AID 588343); format: functional; details: Homo sapiens

FAD-linked sulfhydryl oxidase ALR, sequence (P55789 whole entry, the tested form may be a part): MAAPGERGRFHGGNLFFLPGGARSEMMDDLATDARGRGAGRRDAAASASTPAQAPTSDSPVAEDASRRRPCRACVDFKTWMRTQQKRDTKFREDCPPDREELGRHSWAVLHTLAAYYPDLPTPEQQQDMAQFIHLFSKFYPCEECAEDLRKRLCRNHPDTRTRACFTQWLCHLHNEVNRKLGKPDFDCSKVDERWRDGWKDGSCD
Luciferin 4-monooxygenase, sequence (P08659 whole entry): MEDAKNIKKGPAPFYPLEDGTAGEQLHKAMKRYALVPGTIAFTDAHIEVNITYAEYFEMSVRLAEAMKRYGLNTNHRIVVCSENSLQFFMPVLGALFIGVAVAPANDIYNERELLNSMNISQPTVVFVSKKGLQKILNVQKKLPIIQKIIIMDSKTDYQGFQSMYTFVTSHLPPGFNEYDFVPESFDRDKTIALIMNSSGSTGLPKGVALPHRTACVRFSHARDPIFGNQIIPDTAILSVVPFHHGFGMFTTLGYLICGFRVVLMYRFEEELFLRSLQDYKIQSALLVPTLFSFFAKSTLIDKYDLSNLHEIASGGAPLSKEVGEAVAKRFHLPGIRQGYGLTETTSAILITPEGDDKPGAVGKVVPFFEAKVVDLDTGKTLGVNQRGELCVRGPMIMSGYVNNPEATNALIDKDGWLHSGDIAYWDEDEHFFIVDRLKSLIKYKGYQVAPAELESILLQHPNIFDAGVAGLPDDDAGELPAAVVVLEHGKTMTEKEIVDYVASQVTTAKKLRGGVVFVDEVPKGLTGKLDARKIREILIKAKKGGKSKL
Beta-2 adrenergic receptor, sequence (P07550 whole entry): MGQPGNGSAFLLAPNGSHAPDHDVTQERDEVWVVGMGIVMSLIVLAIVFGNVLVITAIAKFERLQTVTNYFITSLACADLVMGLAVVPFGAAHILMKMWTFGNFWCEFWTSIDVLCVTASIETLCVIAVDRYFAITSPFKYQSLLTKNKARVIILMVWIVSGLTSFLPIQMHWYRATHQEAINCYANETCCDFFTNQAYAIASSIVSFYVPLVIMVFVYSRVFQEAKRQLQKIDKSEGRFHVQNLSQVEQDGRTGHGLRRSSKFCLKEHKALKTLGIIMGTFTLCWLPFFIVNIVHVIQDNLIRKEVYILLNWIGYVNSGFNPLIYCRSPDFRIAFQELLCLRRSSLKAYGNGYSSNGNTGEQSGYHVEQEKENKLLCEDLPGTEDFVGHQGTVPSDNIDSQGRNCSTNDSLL
Phospholipase A2, sequence (P04054 whole entry): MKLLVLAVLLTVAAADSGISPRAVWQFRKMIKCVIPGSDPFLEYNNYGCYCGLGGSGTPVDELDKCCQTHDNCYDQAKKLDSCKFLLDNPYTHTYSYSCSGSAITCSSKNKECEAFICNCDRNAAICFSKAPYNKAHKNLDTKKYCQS

CCCCN(CCCC)c1nc(OC)nc(-n2nnc(C(C)=O)c2C)n1
EC50 [1]: 12.1 µM (inactive)

CCC1=Nc2cc(C(=O)NCc3ccco3)ccc2Sc2ccc(C)cc21
EC50 [2]: 0.25 µM (active) | EC50 [3]: 0.756 µM (active) | EC50 (cells): 0.919 µM (active) | EC50 [4]: 0.243 µM (active) | EC50 [5]: < 0.1 µM (active) | EC50 (BJ [6]): 13.1 µM (inconclusive) | EC50 (BJ [7]): 0.597 µM (active) | EC50 [8]: 0.496 µM (active) | EC50 [9]: > 12 µM (inconclusive) | IC50 (Phospholipase A2): 51.7 µM (inactive) | EC50 (BJ [10]): < 0.104 µM (active) | IC50 (Cysteine protease ATG4B): > 80 µM (inactive)

N#Cc1ccc(CSc2nnc(NC(=O)c3ccc(O)nc3)s2)cc1
AC50 [11]: 0.679 µM (active) | IC50 (Hexokinase-1): > 80 µM (inactive) | IC50 (Hexokinase HKDC1): > 80 µM (inactive)

O=S(=O)(Cc1cc(Cl)nc(-c2cccnc2)n1)c1ccccc1
IC50 [12]: 10.5 µM (active) | IC50 (MDCK): > 100 µM (active)

Cc1nc(Nc2nc3ccccc3o2)nc2c1CCC2
EC50 [13]: 5.88 µM (active) | EC50 (HT-1080): > 50 µM (not active) | AC50 (HEK293): 2.54 µM (active)

Reference: ChEMBL document CHEMBL1201862, “PubChem BioAssay data set” (2004)
